Assay results from ChEMBL document CHEMBL5537159, “Discovery and SAR of JTE-151: A Novel RORγ Inhibitor for Clinical Development” (J Med Chem, 2024).

Tests used:
[1] = MRT in CD(SD) rat at 3 mg/kg, po administered as single dose and measured after 24 hrs; assay type: ADME, organism-based; conditions: in vivo
[2] = Oral bioavailability in CD(SD) rat at 3 mg/kg administered as single dose and measured after 24 hrs; assay type: ADME, organism-based; conditions: in vivo
[3] = AUCinfinity in CD(SD) rat at 3 mg/kg, po administered as single dose and measured after 24 hrs; assay type: ADME, organism-based; conditions: in vivo
[4] = Metabolic stability in human liver microsomes assessed as compound remaining at 5 umol/L measured after 60 mins by UPLC/MS analysis; assay type: ADME, Microsome; conditions: dose 5 µmol/L, read-out: Stability
[5] = Volume of distribution at steady state in CD(SD) rat at 1 mg/kg, iv administered as single dose and measured after 24 hrs; assay type: ADME, organism-based; conditions: in vivo, read-out: Vdss
[6] = Lipophilicity, logD of compound by RP-HPLC analysis; assay type: physicochemical
[7] = Apparent permeability in human Caco-2 cells at 25 umol/L incubated for 2 hrs by LC/MS/MS analysis; assay type: ADME, cell-based; conditions: dose 25 µmol/L
[8] = Elimination half life in CD(SD) rat at 1 mg/kg, iv administered as single dose and measured after 24 hrs; assay type: ADME, organism-based; conditions: in vivo, read-out: beta t1/2 (converted)
[9] = Total body clearance in CD(SD) rat at 1 mg/kg, iv administered as single dose and measured after 24 hrs; assay type: ADME, organism-based; conditions: in vivo
[10] = target: T1, Nuclear receptor ROR-gamma (Homo sapiens, UniProt P51449); experiment: Inhibition of GAL4 DNA-binding domain fused RORgamma (unknown origin) transfected in CHO-K1 cells incubated for 2 days by luciferase assay; assay type: cell-based
T1 sequence (P51449 whole entry): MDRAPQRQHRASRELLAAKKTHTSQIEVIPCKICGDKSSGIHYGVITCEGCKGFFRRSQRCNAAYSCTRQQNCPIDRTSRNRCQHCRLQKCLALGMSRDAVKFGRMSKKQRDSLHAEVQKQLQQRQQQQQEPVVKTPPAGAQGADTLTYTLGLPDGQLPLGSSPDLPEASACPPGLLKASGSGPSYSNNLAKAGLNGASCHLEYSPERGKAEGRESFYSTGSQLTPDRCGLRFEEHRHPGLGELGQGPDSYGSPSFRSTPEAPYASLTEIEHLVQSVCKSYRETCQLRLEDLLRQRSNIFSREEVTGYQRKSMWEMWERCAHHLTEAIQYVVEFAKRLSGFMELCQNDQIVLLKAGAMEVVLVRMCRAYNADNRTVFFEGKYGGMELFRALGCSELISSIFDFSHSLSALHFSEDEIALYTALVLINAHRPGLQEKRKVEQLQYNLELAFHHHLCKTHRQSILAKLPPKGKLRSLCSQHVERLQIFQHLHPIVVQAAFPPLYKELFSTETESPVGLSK

| MRT [1] [h] | bioavailability [2] [%] | AUC(0-inf) [3] [µM·h] | remaining at 1 h, 5 µM [4] [%] | Vd [5] [L/kg] | logD [6] | Papp at 2 h, 25 µM [7] [×10⁻⁶ cm/s] | half-life [8] [h] | clearance [9] [mL/min/kg] | EC50 [10] [nM] | Compound |
| --- | --- | --- | --- | --- | --- | --- | --- | --- | --- | --- |
| 3.6 | 46 | 2.8 | 86 | 0.67 | 4.2 | 30.9 | 1.5 | 16.5 |  | Cc1ccc(NC(=O)C[C@H](CCC(=O)O)c2nnn([C@H]3C[C@@H](CC(C)(C)C)C3)c2C2CC2)c(Cl)c1 |
| 2.5 | 61 | 2 | 73 | 1.4 | 4.3 | 22.6 | 1.5 | 30 | 22 | Cc1ccc(NC(=O)C[C@H](CCC(=O)O)n2nnc([C@H]3C[C@@H](CC(C)(C)C)C3)c2C2CC2)c(Cl)c1 |
|  |  |  | 37 |  | 4.4 | 23.3 |  |  | 660 | Cc1ccc(NC(=O)C[C@H](CC(=O)O)c2noc([C@H]3C[C@@H](CC(C)C)C3)c2C(C)C)c(C)c1 |
|  |  |  | 103 |  | 3.2 | 0.1 |  |  | 3000 | Cc1ccc(NC(=O)CC(CC(=O)O)c2nnc([C@H]3C[C@@H](CC(C)C)C3)n2C2CC2)c(C)c1 (mixture of isomers) |
